Patent US8471032B2, “Benzimidazole compound in crystal form and salt thereof” (Mitsubishi Tanabe Pharma Corporation, priority 2008, dated 2013)
≈ marks a conversion by molar mass, not a printed value.

How the values were obtained:
[1] = Water adsorption measurement (DVS-1 water adsorption apparatus), index of hygroscopicity; assay type: physicochemical; conditions: relative humidity changed within 0% to 95%; amount of change based on the weight at relative humidity 0%
Method: The water adsorption measurement, which becomes an index of hygroscopicity, was performed using a DVS-1 type water adsorption apparatus (manufactured by SMS) under the following conditions. Using a sample (about 6-12 mg), the relative humidity was changed within the relative humidity range of 0% to 95%. The weight change was recorded for each predetermined relative humidity, and converted to the amount of change (%) based on the weight at relative humidity 0%. […] As to this compound, the zero point was amended based on the moisture value of the sample measured by the Karl Fischer's method, and the weight change was converted to the amount of change (%).

[2] = Solubility in water at 37° C. (HPLC, calibration curve method); assay type: physicochemical; conditions: shaken for 4 hr
Method: The solubility of the obtained compounds in water at 37° C. was measured under the following conditions. An adequate amount of each sample was taken, water was added to each sample, and the mixture was shaken at 37° C. for 4 hr. The supernatant was filtered through a filter, and diluted with a mixed solution of TFA/acetonitrile/water=(0.05:30:70) as necessary to give a sample solution. The concentration (mg/ml) of the sample solution was measured by high performance liquid chromatography (HPLC) with a calibration curve method, and taken as the solubility in water at 37° C.
apparatus: HPLC System Class-VP (SHIMADZU Corporation)
detector: photodiode array detector
measurement wavelength range: 200-370 nm
column: Inertsil ODS-3V (4.6 mm9×150 mm)
column temperature: 40° C.
mobile phase: SOLUTION A 0.05% aqueous trifluoroacetic acid solution • SOLUTION B 0.05% trifluoroacetic acid-acetonitrile solution • A:B=70:30 (Isocratic Elution)

Row | SMILES | weight increase (water adsorption / moisture absorption) [1] [%] | solubility in water [2] [µg/mL]
1 | CNC(=O)Cn1c(=O)n(C2CCN([C@@H]3Cc4cccc5cccc3c45)CC2)c2ccccc21 [Example 1, (R)-2-{3-[1-(acenaphthen-1-yl)piperidin-4-yl]-2,3-dihydro-2-oxo-benzimidazol-1-yl}-N-methylacetamide] | 0.2 | > 2000
2 | CNC(=O)Cn1c(=O)n(C2CCN([C@@H]3Cc4cccc5cccc3c45)CC2)c2ccccc21 [Example 2, (R)-2-{3-[1-(acenaphthen-1-yl)piperidin-4-yl]-2,3-dihydro-2-oxo-benzimidazol-1-yl}-N-methylacetamide] | 0.2 | 
3 | CNC(=O)Cn1c(=O)n(C2CCN([C@@H]3Cc4cccc5cccc3c45)CC2)c2ccccc21 [Example 6, (R)-2-{3-[1-(acenaphthen-1-yl)piperidin-4-yl]-2,3-dihydro-2-oxo-benzimidazol-1-yl}-N-methylacetamide] | 0.4 | > 2000
4 | CNC(=O)Cn1c(=O)n(C2CCN([C@@H]3Cc4cccc5cccc3c45)CC2)c2ccccc21 [Example 8, (R)-2-{3-[1-(acenaphthen-1-yl)piperidin-4-yl]-2,3-dihydro-2-oxo-benzimidazol-1-yl}-N-methylacetamide] | 2.0 | 
5 | CNC(=O)Cn1c(=O)n(C2CCN([C@@H]3Cc4cccc5cccc3c45)CC2)c2ccccc21 [Example 10, (R)-2-{3-[1-(acenaphthen-1-yl)piperidin-4-yl]-2,3-dihydro-2-oxo-benzimidazol-1-yl}-N-methylacetamide] | 1.3 | 300 (≈ 681 µM)
6 | CNC(=O)Cn1c(=O)n(C2CCN([C@@H]3Cc4cccc5cccc3c45)CC2)c2ccccc21 [Example 16, (R)-2-{3-[1-(acenaphthen-1-yl)piperidin-4-yl]-2,3-dihydro-2-oxo-benzimidazol-1-yl}-N-methylacetamide] |  | 10 (≈ 22.7 µM)
7 | CNC(=O)Cn1c(=O)n(C2CCN([C@@H]3Cc4cccc5cccc3c45)CC2)c2ccccc21 [Example 17, (R)-2-{3-[1-(acenaphthen-1-yl)piperidin-4-yl]-2,3-dihydro-2-oxo-benzimidazol-1-yl}-N-methylacetamide] |  | 10 (≈ 22.7 µM)
